Experimental data: patent publication US20220144853A1, “IMIDAZOLINE DERIVATIVES AS CXCR4 MODULATORS” (Université de Paris, priority 2019, published 2022)
pIC50: −log10 of the molar value. Counter-ions that a name gives are not always drawn.

Tests used:
[1] = tested on: IL-23; test: Cytokine production by R848-activated PBMCs, LEGENDplex Human Inflammation panel 1: IL-23; format: cell-based; conditions: Homo sapiens, PBMC, PBMCs from 2 healthy donors, R848 overnight
Method: (§1) 2) The PBMCs used herein were prepared as described in part A “immune cells preparation”, section 2) above. PBMCs were seeded at 4.10^6/mL. […] Cells were then stimulated with the TLR7/8 agonist resiquimod—R848 (Sigma-Aldrich, MO, USA) at 5 μg/mL.
(§2) Cytokine expression levels were assessed using LEGENDplex Human inflammation panel 1 Kit (BioLegend, California, USA), which is a bead-based multiplex assay, using fluorescence-encoded beads. […] First, supernatants of R848-stimulated PBMCs were harvested after 24 h of stimulation and frozen at −20° C. for storage. Supernatants were dispensed into a 96-well V-bottom plate. Protocol pursued as per manufacturer recommendations (Manual for BioLegend LEGENDplex, Multi-Analyte Flow Assay Kit, Human Inflammation Panel 1, version 750000393_R01).

[2] = tested on: IL-1β; test: Cytokine production by R848-activated PBMCs, LEGENDplex Human Inflammation panel 1: IL-1β; format: cell-based; conditions: Homo sapiens, PBMC, PBMCs from 2 healthy donors, R848 overnight, read-out: IC50 (μM) 1L-1β
Method: as §1, §2

[3] = tested on: IL-12p70; test: Cytokine production by R848-activated PBMCs, LEGENDplex Human Inflammation panel 1: IL-12p70; format: cell-based; conditions: Homo sapiens, PBMC, PBMCs from 2 healthy donors, R848 overnight
Method: as §1, §2

[4] = tested on: IL-10; test: Cytokine production by R848-activated PBMCs, LEGENDplex Human Inflammation panel 1: IL-10; format: cell-based; conditions: Homo sapiens, PBMC, PBMCs from 2 healthy donors, R848 overnight
Method: as §1, §2

[5] = tested on: TNF-α; test: Cytokine production by R848-activated PBMCs, LEGENDplex Human Inflammation panel 1: TNF-α; format: cell-based; conditions: Homo sapiens, PBMC, PBMCs from 2 healthy donors, R848 overnight
Method: as §1, §2

[6] = tested on: IL-18; test: Cytokine production by R848-activated PBMCs, LEGENDplex Human Inflammation panel 1: IL-18; format: cell-based; conditions: Homo sapiens, PBMC, PBMCs from 2 healthy donors, R848 overnight
Method: as §1, §2

[7] = tested on: IFN-γ; test: Cytokine production by R848-activated PBMCs, LEGENDplex Human Inflammation panel 1: IFN-γ; format: cell-based; conditions: Homo sapiens, PBMC, PBMCs from 2 healthy donors, R848 overnight
Method: as §1, §2

[8] = tested on: IL-1β, IFN-γ, TNF-α, IL-10, IL-12p70, IL-18 and IL-23; test: Cytokine production by R848-activated PBMCs, LEGENDplex: statements on all inhibited cytokines together; format: cell-based; conditions: Homo sapiens, PBMC, PBMCs from two healthy donors, read-out: IC50 on the expression of cytokines, on all such cytokines
Method: as §1, §2

[9] = tested on: IFN production by activated PBMCs; test: IFN production by R848-activated PBMCs from healthy donors, twINNE reporter cell line; format: cell-based, human; conditions: Homo sapiens, PBMC, means of two results over 2 healthy donors, R848 5 μg/mL, IT1t: mean over all experiments, read-out: IC50 of anti-inflammatory activity (IFN production)
Method: 2) The blood from healthy donors was also obtained from “Etablissement Français du Sang” (convention #19/EFS/029), Paris, France.
In vitro experiments were performed using human peripheral blood mononuclear cells (PBMCs) isolated by density centrifugation from peripheral blood leukocyte separation medium, lymphoprep (Stemcell Technologies).
PBMCs were cultured in RPMI 1640 (Sigma-Aldrich, MO, USA) containing 10% heat-inactivated fetal bovine serum (Sigma-Aldrich, MO, USA) at 37° C./5% CO2.
as §1
2) To quantify the secretion of functional IFN, a biological assay based on a stable cell line where luciferase reporter gene is controlled by five Interferon-Stimulated Response Elements (twINNE cell line) was used. It is important to note that the twINNE cell line is the same as the above mentioned STING-37 cell line but with constitutively expressed nanoluciferase. First, supernatants of R848-stimulated PBMCs (see part B, section 2) above) were harvested after 24 h of stimulation and frozen at −20° C. for storage. Then, supernatants were dispensed in culture wells of a 96-well plate containing 35.103 twINNE cells per well in Dulbecco's Modified Eagle's Medium supplemented with 10% Foetal Bovine Serum, 100 U/mL Penicillin and 100 μg/mL Streptomycin (1% Pen-Strep) and 1 mM glutamine (Sigma-Aldrich, MO, USA) at 37° C./5% […]. After 24 h of culture, luciferase activity was determined by adding 60 μL of Bright-Go reagents (Promega, Wisconsin, USA) to culture wells and measuring bioluminescence with EnSpire Multimode Plate Reader (PerkinElmer, Massachusetts, USA). When stated, for IC50 calculation, dose-response curves fitted using the nonlin fit (variable slope) analysis in GraphPad Prism software (GraphPad Software, California, USA).

melting point [°C]	SMILES	IC50 [1] [µM]	IC50 [2] [µM]	IC50 [3] [µM]	IC50 [4] [µM]	IC50 [5] [µM]	IC50 [6] [µM]	IC50 [7] [µM]	pIC50 [8]	pIC50 [9]
	CC1(C)CN=C(SCC2=CSC3=N[C@H]4CCCC[C@@H]4N23)N1 (racemic) [Example 7, trans-3-(((4,4-dimethyl-4,5-dihydro-1H-imidazol-2-yl)thio)methyl)-4a,5,6,7,8,8a-hexahydrobenzo[4,5]imidazo[2,1-b]thiazole dihydrochloride]	2.9	9.9	6.7	5.6	20	4.2	9.8	≥ 4.70	≥ 5.00
	CN1CCN=C1SCC1=CSC2=NC3CCCCC3N12 (racemic) [Example 63, trans-3-(((1-methyl-4,5-dihydro-1H-imidazol-2-yl)thio)methyl)-4a,5,6,7,8,8a-hexahydrobenzo[4,5]imidazo[2,1-b]thiazole dihydrochloride]	0.69	2.8	1.2			1.3	2.7		≥ 5.00
	CC1(C)CN2C(CSC3=N[C@@H]4CCCC[C@H]4N3)=CSC2=N1 [Example 3, 3-((((3aR,7aR)-3a,4,5,6,7a-hexahydro-1H-benzo[d]imidazol-2-yl)thio)methyl)-6,6-dimethyl-5,6-dihydroimidazo[2,1-b]thiazole dihydrochloride]	1.7	12	2.6	11	11	6.9	7.2	≥ 4.70	≥ 5.00
	CC1(C)CN2C(CSC3=NCC(Cc4ccccc4)N3)=CSC2=N1 (centres unmarked) [Example 17, 3-(((5-benzyl-4,5-dihydro-1H-imidazol-2-yl)thio)methyl)-6,6-dimethyl-5,6-dihydroimidazo[2,1-b]thiazole dihydrochloride]	2.2	3.6	0.34	2.7	4.6	0.54	3.2	≥ 4.70	≥ 5.00
	CC1(C)CN=C(SCC2=CSC3=NC(Cc4ccccc4)CN23)N1 (centres unmarked) [Example 18, 6-benzyl-3-(((5,5-dimethyl-4,5-dihydro-1H-imidazol-2-yl)thio)methyl)-5,6-dihydroimidazo[2,1-b]thiazole dihydrochloride]	2.9	5.6	3.6	3.7	7.9	0.2	6.1	≥ 4.70	4.51 to 5.00
85 to 95	CC1(C)CN2C(CCCSC3=NCC(C)(C)N3)=CSC2=N1.Cl.Cl [Example 64, 3-(3-((5,5-dimethyl-4,5-dihydro-1H-imidazol-2-yl)thio)propyl)-6,6-dimethyl-5,6-dihydroimidazo[2,1-b]thiazole dihydrochloride]									≤ 4.51
